Read-outs that look alike come from different tables or passages of the source.
Legend:
[1] = biological target: T1, m1A22-tRNA methyltransferase TrmK (SaTrmK) (Staphylococcus aureus, UniProt Q2FY13); experiment: MTase-Glo methyltransferase assay with tRNA-Leu, single concentration; format: biochemical
T1 construct: gene SAOUHSC_01661; recombinant SaTrmK, His-tag cleaved by TEVP, N-terminal glycine residue left

[2] = biological target: T1, m1A22-tRNA methyltransferase TrmK (SaTrmK); experiment: ITC; co-crystal structure at […] Å; DSF; format: binding
[3] = biological target: T1, m1A22-tRNA methyltransferase TrmK (SaTrmK); experiment: intact-mass ESI-MS and LC-MS/MS peptide mapping of covalent adduct; MTase-Glo inhibition assay; format: binding
[4] = biological target: T1, m1A22-tRNA methyltransferase TrmK (SaTrmK); experiment: ITC; co-crystal structure at […] Å; DSF; format: binding; remark: listed apart in the source

T1 sequence (Q2FY13 entry or part of it): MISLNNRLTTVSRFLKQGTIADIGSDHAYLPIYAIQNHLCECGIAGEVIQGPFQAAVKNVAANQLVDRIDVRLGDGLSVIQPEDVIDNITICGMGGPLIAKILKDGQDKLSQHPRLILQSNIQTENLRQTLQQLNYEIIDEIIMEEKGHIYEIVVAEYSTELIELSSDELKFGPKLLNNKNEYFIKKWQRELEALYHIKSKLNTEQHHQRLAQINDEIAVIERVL

## Nc1ncnc2c1ncn2[C@@H]1O[C@H](C[C@@H](N)CC[C@H](N)C(=O)O)[C@@H](O)[C@H]1O [sinefungin]
[1]
  inhibition at 10 µM: ~98%

## Nc1ncnc2c1ncn2[C@@H]1O[C@H](CSCC[C@H](N)C(=O)O)[C@@H](O)[C@H]1O [SAH]
[2]
  Kd: 0.94 ± 0.05 µM

## CC1=CC(=O)c2c(O)cccc2C1=O [plumbagin, 5-hydroxy-2-methyl-1,4-naphtoquinone]
[3]
  inhibition at 5 µM: ~93%

## C[S@@+](CC[C@H](N)C(=O)O)C[C@H]1O[C@@H](n2cnc3c(N)ncnc32)[C@H](O)[C@@H]1O [SAM]
[4]
  Kd: 39 ± 4 µM

From publication PMC9190014, “Structure, dynamics, and molecular inhibition of the Staphylococcus aureus m^1A22-tRNA methyltransferase TrmK” (The Journal of Biological Chemistry, 2022)
